The subject of one data set is Streptococcus. Description: Group A Streptococcus viability loss, dose response, counter-screen for streptokinase expression inhibitor project, luminescence, BacTiterGlo (AID 1915).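 Further: potency for reduction of bacterial viability or growth.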 The class given is functional, organism-based. On the technique in general: The purpose of a counterscreen is to sort out artefacts and off-target activity.
In data set [1] the test system is Streptococcus sp. 'group A'. As to the kind of experiment: growth inhibition of control SK(-) GAS strain, dose response, counter-screen for streptokinase expression inhibitor project, luminescence, kanamycin, BacTiterGlo, confirmation (AID 1900). Type of data set: functional, organism-based.
Data set [2] in a line: inhibitors of intracellular T. cruzi replication, confirmation, NIH3T3 host cells, beta-gal luminescence (AID 2044).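 Further: intracellular parasites grown in NIH/3T3 mouse fibroblasts as host cells; luminescent beta-galactosidase reporter signal from transgenic T. cruzi replicating inside host cells; inhibitors lower the luminescence signal.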 The class given is functional, cell-based.
In the next data set the test system is INS1. As to the kind of experiment: beta cell apoptosis inhibitors, cytokine rescue, dose response, luminescence, retest (AID 449756).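 Further: cell death triggered by IL-1 beta plus TNF-alpha plus IFN-gamma mixture; protective hits raise ATP signal compared with cytokine alone wells.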 The class given is functional, cell-based. The following applies: Rattus norvegicus, INS1.
A further data set in a line: cells. Type of data set: functional.
A further data set addresses T1, Streptokinase A (Streptococcus pyogenes serotype M1, UniProt P10520).
T1 sequence (P10520 whole entry): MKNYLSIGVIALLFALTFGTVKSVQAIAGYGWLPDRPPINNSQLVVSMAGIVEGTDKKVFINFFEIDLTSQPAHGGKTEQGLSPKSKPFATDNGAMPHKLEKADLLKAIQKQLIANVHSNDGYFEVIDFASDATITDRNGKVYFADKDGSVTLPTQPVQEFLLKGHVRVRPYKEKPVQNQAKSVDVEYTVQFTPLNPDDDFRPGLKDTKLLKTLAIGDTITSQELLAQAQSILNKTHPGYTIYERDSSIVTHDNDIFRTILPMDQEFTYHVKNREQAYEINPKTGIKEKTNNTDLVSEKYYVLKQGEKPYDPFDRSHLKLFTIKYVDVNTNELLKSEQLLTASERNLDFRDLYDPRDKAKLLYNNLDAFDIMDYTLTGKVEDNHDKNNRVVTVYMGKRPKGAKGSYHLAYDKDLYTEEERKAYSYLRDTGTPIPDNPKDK
Description: S. pyogenes streptokinase expression inhibitors, potency, dose response, plasminogen activation absorbance, OD405 (AID 1914).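 Further: secreted streptokinase activity via plasminogen activation per viability signal from cell pellet.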 Type of data set: functional, Streptococcus pyogenes M1 GAS.

Data set [3] can be described thus: Vero E6 cell cytotoxicity, dose response, cytotoxicity control for non-replicating M. tuberculosis project, secondary assay (AID 492998). Type of data set: functional, VeroE6. The note with it: Vero C1008.
Data set [4] is described as follows: THP-1 cell cytotoxicity, dose response, cytotoxicity control for non-replicating M. tuberculosis project (AID 489025). The class given is functional.
Data set [5] is described as follows: HepG2 cell cytotoxicity, dose response, cytotoxicity control for non-replicating M. tuberculosis project (AID 489018). The note with it: Mycobacterium tuberculosis. The class given is functional.
Data set [6] in a line: cytotoxicity toward NIH3T3 fibroblasts, dose response, counter-screen, cell-based, ATP luminescence, mouse fibroblasts (AID 2010).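 Further: cells exposed to compound for about 90 hours before reading.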 The class given is functional.
For data set [7], the target named is T2, Carboxy-terminal domain RNA polymerase II polypeptide A small phosphatase 1 (Homo sapiens, UniProt Q9GZU7).
T2 sequence (Q9GZU7 whole entry): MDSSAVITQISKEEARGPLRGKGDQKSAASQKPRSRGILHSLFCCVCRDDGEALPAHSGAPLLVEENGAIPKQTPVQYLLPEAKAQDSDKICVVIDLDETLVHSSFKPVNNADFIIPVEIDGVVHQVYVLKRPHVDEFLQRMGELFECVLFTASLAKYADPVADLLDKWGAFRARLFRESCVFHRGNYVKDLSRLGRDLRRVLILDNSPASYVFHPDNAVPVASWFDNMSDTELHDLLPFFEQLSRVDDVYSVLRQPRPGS
Description: inhibitors of CTDSP1, concentration-response testing, biochemical assay, absorbance-based, actives from ultra-high-throughput screening (AID 540297). Type of data set: functional.

For another data set, the target named is Genome polyprotein (dengue virus type 2, UniProt P29990). As to the kind of experiment: Dengue-2 NS5 methyltransferase inhibitors, primary screen, biochemical, confirmation dose response (AID 588689). The class given is functional.
Data set [8] concerns the target T3, Voltage-gated N-type calcium channel alpha-1B subunit/Amyloid beta A4 precursor protein-binding family A member 1 (Homo sapiens, UniProt Q00975+Q02410). Type of data set: protein assay.
In the next data set the target is T4, Hexokinase HKDC1 (Homo sapiens, UniProt Q2TB90).
T4 sequence (Q2TB90 whole entry): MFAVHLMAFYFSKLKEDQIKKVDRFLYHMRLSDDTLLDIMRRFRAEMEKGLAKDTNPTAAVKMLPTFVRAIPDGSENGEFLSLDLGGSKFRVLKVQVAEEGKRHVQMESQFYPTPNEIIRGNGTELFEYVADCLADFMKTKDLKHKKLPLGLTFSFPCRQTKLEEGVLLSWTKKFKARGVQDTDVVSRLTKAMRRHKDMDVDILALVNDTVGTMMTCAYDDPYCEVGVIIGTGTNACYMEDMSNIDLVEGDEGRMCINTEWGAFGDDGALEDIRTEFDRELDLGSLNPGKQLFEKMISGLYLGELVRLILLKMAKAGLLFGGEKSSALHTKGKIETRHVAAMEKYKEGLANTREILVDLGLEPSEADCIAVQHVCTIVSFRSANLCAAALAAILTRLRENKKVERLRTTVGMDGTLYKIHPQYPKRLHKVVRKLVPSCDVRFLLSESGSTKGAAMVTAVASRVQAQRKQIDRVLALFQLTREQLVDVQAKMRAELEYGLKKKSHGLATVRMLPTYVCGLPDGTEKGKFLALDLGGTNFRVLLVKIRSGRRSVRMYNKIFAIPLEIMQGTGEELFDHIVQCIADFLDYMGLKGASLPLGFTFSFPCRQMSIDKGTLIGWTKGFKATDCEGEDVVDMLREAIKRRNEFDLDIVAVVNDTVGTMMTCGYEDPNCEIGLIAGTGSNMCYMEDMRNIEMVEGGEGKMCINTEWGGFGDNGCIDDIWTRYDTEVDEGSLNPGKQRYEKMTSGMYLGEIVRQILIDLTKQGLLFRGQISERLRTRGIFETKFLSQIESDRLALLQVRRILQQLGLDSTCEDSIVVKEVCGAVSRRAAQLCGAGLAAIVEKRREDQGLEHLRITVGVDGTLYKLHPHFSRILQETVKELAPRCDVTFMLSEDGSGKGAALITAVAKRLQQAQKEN
As to the kind of experiment: HKDC1 hexokinase inhibitors, dose response, biochemical, W721R variant (AID 504729). Type of data set: functional.

In data set [9] the target is T3, Voltage-gated N-type calcium channel alpha-1B subunit/Amyloid beta A4 precursor protein-binding family A member 1. Type of data set: protein assay. This is another data set of the same source.
Data set [10] deals with Induced myeloid leukemia cell differentiation protein Mcl-1 (Homo sapiens, UniProt Q07820). Type of data set: functional.
Another data set concerns the target T5, Hexokinase (Trypanosoma brucei, UniProt Q38C41).
T5 sequence (Q38C41 whole entry): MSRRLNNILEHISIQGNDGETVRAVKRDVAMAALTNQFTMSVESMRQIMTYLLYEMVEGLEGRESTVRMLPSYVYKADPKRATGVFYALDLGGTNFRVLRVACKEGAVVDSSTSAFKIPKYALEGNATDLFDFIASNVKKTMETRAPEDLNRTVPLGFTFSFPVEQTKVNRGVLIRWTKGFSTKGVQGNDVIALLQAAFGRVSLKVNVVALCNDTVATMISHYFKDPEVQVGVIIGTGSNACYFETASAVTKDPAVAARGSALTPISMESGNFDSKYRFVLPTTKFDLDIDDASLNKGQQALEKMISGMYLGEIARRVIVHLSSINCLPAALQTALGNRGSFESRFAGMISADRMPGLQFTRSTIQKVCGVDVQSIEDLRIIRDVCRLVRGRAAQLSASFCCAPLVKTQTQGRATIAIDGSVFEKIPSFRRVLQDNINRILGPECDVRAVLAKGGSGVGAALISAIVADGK
As to the kind of experiment: Confirmation assay for inhibitors of Trypanosoma brucei hexokinase 1-Analogue-first series. [Related pubchem assays (depositor defined):AID1430, AID1632, AID2516, AID2560, AID2579, AID2600, AID449725, AID492951]. The class given is functional.

The next data set concerns the target Cytochrome P450 3A4 (Homo sapiens, UniProt P08684).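 Further: CYP3A4 tested as one member of a cytochrome P450 panel screen.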
The target of data set [11] is Glucose-6-phosphate 1-dehydrogenase (Homo sapiens, UniProt P11413). Description: human G6PD enzyme inhibitors, dose response, selectivity assay for P. falciparum G6PD inhibitor project, biochemical, fluorescence (AID 504792). Type of data set: functional.
A further data set has as its target Cytochrome P450 2C9 (Homo sapiens, UniProt P11712).
A further data set deals with Cytochrome P450 2C19 (Homo sapiens, UniProt P33261). Description: Cytochrome panel assay with activity outcomes. Panel member name: p450-cyp2c19 Compounds with AC50 equal or less than 10 uM are considered active. The class given is functional. The following applies: read-out: AC50.
The target of the next data set is T6, Coagulation factor XII (Homo sapiens, UniProt P00748).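 Further: activated factor XIIa alpha cleaving a fluorogenic AMC peptide substrate; inhibitor potency from loss of enzyme activity.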
T6 sequence (P00748 whole entry): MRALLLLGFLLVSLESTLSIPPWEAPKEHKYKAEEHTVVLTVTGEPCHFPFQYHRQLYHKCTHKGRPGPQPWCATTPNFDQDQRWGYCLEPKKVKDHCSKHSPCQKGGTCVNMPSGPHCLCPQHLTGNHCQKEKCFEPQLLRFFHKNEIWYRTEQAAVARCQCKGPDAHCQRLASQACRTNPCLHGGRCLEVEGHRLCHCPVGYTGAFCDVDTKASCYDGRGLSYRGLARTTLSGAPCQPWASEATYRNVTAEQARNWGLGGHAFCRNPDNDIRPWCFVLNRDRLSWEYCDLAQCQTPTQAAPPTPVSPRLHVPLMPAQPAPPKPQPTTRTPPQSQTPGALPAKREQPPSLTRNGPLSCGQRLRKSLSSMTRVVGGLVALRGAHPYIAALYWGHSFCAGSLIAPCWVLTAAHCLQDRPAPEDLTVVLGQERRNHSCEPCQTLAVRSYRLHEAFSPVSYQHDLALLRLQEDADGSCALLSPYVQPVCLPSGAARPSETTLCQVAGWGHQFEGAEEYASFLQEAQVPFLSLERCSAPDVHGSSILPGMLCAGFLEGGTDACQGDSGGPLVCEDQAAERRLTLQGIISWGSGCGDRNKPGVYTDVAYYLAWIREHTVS
The class given is functional.

The target in data set [12] is T7, Mannose-6-phosphate isomerase (Homo sapiens, UniProt P34949).
T7 sequence (P34949 whole entry): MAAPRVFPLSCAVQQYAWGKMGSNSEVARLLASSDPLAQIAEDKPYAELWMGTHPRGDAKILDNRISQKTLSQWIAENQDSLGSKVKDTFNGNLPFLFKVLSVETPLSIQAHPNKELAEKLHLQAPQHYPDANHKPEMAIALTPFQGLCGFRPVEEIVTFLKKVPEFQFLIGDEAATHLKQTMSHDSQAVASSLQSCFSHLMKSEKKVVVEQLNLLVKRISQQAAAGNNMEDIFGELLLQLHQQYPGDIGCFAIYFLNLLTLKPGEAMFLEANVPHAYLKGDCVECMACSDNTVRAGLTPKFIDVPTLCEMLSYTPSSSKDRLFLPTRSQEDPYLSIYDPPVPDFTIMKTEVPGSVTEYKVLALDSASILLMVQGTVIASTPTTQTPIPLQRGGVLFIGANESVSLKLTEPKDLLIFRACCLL
Description: human PMI inhibitors, high substrate, primary screen, biochemical, fluorescence intensity, high mannose 6-phosphate (AID 1220).

A further data set concerns Escherichia coli. As to the kind of experiment: microbe, parasite or virus in culture.

Structures are written as SMILES. Values joined by “and” are separate entries in the source; they are usually repeats but may differ in a detail not shown here. Equal entries are not always repeated. Active and inactive are the calls of the source.

Sequence of Cytochrome P450 3A4 (P08684 whole entry): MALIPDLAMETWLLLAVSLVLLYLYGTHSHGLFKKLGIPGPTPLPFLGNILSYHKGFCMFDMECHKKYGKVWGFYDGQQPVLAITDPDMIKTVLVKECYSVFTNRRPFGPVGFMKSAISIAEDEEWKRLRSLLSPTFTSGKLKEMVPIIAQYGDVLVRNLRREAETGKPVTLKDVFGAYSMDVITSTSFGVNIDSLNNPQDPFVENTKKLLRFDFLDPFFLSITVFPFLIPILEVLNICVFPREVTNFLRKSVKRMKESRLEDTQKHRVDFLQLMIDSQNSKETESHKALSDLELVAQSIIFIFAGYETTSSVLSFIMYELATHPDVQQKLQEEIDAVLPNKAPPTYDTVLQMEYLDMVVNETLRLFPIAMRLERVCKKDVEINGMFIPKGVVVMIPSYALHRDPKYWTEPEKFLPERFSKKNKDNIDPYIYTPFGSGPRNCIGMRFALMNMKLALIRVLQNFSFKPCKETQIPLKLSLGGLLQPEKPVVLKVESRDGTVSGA
T3 sequence (Q00975 whole entry): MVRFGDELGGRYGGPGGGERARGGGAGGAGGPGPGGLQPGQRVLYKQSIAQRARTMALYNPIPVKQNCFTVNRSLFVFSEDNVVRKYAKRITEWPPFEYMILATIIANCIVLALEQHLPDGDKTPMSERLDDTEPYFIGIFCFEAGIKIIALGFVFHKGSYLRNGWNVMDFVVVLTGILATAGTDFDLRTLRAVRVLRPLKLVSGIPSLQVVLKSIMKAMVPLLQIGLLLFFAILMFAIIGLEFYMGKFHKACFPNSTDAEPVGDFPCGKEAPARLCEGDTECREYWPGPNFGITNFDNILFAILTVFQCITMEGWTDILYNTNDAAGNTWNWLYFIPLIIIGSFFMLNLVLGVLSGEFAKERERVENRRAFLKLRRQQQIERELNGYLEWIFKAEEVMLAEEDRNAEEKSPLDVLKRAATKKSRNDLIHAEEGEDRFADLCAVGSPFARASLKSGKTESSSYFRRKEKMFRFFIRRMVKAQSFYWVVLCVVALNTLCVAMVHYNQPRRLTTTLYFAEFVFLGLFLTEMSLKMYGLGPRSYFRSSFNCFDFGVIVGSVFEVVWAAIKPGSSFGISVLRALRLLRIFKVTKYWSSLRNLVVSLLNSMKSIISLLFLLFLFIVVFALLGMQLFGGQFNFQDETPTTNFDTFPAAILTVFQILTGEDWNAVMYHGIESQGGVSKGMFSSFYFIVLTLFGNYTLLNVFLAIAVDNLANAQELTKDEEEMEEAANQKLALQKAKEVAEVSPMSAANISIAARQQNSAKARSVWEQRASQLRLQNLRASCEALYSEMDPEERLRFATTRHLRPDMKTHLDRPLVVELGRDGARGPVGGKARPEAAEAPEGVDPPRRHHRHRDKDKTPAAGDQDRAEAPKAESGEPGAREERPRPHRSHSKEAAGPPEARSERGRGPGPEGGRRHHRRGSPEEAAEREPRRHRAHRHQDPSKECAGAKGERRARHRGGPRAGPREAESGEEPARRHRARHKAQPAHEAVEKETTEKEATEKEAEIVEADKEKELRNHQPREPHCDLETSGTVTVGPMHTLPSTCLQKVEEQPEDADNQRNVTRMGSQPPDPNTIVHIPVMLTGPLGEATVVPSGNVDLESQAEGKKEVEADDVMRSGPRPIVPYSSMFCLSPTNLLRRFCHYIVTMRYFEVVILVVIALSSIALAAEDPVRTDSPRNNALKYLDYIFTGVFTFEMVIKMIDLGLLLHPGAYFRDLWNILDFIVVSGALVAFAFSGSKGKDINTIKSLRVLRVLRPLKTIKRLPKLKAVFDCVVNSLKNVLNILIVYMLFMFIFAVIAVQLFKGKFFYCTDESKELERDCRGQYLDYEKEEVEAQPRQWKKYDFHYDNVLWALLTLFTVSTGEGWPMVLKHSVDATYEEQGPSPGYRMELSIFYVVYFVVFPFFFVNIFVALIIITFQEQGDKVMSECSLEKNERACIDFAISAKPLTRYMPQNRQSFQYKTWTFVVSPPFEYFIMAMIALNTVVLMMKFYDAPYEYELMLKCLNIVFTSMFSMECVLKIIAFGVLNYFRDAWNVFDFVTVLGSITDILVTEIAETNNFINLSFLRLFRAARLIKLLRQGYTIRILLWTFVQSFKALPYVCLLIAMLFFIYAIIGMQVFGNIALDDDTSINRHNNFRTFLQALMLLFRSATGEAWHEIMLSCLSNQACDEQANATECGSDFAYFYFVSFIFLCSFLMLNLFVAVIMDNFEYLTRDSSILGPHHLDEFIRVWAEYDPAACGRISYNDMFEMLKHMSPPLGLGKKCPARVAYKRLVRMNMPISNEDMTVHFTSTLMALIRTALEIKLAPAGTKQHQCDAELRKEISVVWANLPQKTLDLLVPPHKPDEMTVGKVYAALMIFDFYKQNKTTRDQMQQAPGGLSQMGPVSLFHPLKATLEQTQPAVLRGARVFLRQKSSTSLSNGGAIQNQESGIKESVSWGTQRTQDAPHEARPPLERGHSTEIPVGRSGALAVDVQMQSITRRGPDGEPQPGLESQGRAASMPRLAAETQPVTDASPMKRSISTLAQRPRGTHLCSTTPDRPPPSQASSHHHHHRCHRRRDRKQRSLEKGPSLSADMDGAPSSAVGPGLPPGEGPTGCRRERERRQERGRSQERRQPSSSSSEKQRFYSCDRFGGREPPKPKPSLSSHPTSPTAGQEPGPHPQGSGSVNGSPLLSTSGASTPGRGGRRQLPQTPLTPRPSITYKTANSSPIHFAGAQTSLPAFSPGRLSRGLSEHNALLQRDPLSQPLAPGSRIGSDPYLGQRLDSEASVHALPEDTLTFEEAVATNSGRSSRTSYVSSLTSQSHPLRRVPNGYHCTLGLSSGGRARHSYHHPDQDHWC
T3 sequence (Q02410 whole entry): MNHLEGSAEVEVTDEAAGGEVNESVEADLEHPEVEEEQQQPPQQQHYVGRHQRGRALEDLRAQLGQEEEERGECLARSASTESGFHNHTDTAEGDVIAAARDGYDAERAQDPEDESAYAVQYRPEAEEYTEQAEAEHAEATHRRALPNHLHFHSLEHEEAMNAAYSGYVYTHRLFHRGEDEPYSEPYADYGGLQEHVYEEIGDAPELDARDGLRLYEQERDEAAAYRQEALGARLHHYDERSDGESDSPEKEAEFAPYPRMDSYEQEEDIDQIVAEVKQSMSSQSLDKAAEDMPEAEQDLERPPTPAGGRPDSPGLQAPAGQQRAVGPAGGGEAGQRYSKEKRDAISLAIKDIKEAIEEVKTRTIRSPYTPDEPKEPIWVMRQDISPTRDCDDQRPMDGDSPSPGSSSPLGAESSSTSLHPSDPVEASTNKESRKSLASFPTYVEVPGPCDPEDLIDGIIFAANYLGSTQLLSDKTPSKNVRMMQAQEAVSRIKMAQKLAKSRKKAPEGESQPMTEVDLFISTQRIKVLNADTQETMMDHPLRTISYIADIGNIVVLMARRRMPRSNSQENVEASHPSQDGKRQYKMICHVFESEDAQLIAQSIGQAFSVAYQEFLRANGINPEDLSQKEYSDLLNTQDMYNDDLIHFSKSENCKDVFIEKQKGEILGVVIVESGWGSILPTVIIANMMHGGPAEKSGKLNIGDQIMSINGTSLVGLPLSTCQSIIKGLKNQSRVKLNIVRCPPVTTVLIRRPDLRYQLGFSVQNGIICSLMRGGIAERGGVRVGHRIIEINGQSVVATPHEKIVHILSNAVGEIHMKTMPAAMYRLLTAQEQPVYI
Sequence of Induced myeloid leukemia cell differentiation protein Mcl-1 (Q07820 whole entry): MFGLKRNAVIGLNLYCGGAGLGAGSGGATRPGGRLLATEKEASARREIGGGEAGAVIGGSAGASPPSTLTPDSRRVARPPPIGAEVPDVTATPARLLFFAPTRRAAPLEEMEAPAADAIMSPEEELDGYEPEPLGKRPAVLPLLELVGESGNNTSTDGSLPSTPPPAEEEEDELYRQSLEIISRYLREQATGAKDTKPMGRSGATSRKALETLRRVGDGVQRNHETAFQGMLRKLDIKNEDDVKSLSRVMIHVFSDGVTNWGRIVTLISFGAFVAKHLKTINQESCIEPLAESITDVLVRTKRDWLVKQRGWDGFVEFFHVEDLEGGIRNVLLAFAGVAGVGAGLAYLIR
Sequence of Cytochrome P450 2C19 (P33261 whole entry): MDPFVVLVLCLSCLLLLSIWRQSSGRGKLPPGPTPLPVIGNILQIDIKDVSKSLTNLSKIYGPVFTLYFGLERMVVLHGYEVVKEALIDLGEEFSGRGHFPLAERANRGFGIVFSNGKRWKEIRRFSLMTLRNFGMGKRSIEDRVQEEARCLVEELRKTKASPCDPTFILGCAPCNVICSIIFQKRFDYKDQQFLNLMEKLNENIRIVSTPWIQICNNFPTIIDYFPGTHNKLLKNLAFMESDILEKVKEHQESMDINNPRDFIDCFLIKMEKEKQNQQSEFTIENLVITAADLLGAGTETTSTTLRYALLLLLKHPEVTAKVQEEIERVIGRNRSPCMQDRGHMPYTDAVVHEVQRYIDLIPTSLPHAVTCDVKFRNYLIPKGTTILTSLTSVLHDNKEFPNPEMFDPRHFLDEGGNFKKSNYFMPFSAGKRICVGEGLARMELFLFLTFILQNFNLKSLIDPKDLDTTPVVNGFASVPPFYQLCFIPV
Sequence of Glucose-6-phosphate 1-dehydrogenase (P11413 whole entry): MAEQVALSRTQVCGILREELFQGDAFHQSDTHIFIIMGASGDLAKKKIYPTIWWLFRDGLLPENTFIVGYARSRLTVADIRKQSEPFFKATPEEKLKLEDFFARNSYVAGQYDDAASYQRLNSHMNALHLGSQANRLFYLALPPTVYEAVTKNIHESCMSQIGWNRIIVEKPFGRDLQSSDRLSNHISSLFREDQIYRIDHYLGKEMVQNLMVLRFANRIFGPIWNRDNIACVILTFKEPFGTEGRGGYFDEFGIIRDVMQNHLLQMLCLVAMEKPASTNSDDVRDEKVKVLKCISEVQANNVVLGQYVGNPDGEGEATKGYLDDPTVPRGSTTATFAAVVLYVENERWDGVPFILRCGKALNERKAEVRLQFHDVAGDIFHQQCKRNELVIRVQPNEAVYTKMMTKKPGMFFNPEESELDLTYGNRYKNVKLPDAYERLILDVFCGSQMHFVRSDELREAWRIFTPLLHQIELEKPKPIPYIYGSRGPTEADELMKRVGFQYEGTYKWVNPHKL

As for `CC(C)(C)c1cc(C(=O)N/N=C/c2ccc([N+](=O)[O-])s2)[nH]n1`, the EC50 (in general, the concentration needed to bring the measured effect to its halfway point) was 15.8 µM (active) in the data set with Streptococcus; 12.3 µM (active) in data set [1]; 0.15 µM (active) in [2]; > 150 µM (not active) at Streptokinase A; > 60 µM (not active) in [6]. Further, in the data set on INS1, the AC50 (as a rule, the concentration giving half of the maximal activity seen) was 6.87 µM (active). Further, the IC50 – broadly, the midpoint of a concentration-inhibition curve – in the data set “cells” is 5.22 µM (active). Further, the CC50 (usually the concentration that lowers cell viability or growth by half) was 12 µM (active) in data set [3], 18.9 µM (active) in data set [4] and > 20 µM (active) in data set [5].

As for `CCC1=NN2C(=N)/C(=C\c3ccc(OCc4cc(=O)n5nc(CC)sc5n4)c(OC)c3)C(=O)N=C2S1`, the IC50 in data set [7] is 5.99 µM (active); on Genome polyprotein, 61.9 µM (active); in data set [8] it was > 56.8 µM (not active); at Hexokinase HKDC1, 41.1 µM (inactive); in [9] it was > 50 µM (inactive); in data set [10] it was 2.95 µM (active).

For the compound `O=C(Nc1cc(Cl)ccc1C(=O)O)c1ccc2c(c1)CCC2`, the IC50 at Hexokinase was 4.83 µM (active).

For the compound `Cc1cnc(CNc2cc(-c3ccccc3Cl)ncn2)cn1`, the AC50 entry at Cytochrome P450 3A4 is reported as “inconclusive”.

`COc1ccc(C(=O)Nc2cc(Cl)ccc2C(=O)O)cc1`: the IC50 was 11.2 µM (active) and 8.23 µM (active) on Hexokinase; > 80 µM (inactive) in data set [11].

`CCCC(=O)Nc1nc2nc(-c3ccccc3)cc(-c3ccccc3)n2n1`: the AC50 result at Cytochrome P450 3A4 was “inconclusive”; at Cytochrome P450 2C9, 0.0112 µM (inconclusive); at Cytochrome P450 2C19 it was 11.2 µM (inconclusive).

Consider `CCN(c1ccccc1)S(=O)(=O)c1ccc(C(=O)Nc2nnc(COC)o2)cc1`, for which, at Coagulation factor XII, the IC50 was > 50 µM (inactive).

In the case of `CCO/C(O)=C(/C)C1=NC(C)(C)Cc2ccccc21`, the values for the IC50 (on Coagulation factor XII; in data set [12]) were > 50 µM (inactive) and 37.9 µM (active), respectively. The EC50 is 10.7 µM (active) in data set [2] and > 60 µM (not active) in data set [6].

As to `O=C(O)c1ccc(NCc2nc3ccccc3n2Cc2ccccc2)cc1`, at Coagulation factor XII, the IC50 is > 50 µM (inactive).

`COc1cccc(-c2cc(O)c3cc(NC(C)=O)ccc3n2)c1`: in the data set on Escherichia coli, the AC50 was 28.2 µM (active).

On to `CC(C)c1ccc(OCC(=O)N2CCN(C)CC2)c(Br)c1`, for which, in the data set on Escherichia coli, the AC50 is 57.9 µM (active).

For the origin of these results see ChEMBL document CHEMBL1201862, “PubChem BioAssay data set” (2004).
